From paper PMC12186298, “Phase 1 clinical trial of eneboparatide, a novel PTH receptor 1 agonist” (Endocrine Connections, 2025)
Peptide text beside a SMILES is read from it.

System: healthy subjects
Test: Pharmacodynamics (serum calcium, phosphorus, endogenous PTH, urine), Part A SAD
Type: in vivo, human
Protocol: Seven sequential cohorts were included in Part A. The first cohort was single-blind and included four subjects, of which three subjects were randomized to receive 5 μg eneboparatide and one subject was randomized to receive placebo. […] Subjects in Part A were admitted to the phase 1 study centre on day 1 and received the study drug at the clinical site on day 1 as a single, subcutaneous abdominal injection in the morning. They were discharged on day 4 and were asked to return for a follow-up (FU) visit on day 5–8.
Blood samples were taken on day 1 at pre-dose, at several time points post-dose up to day 4 and at FU (Part A), on day 1–14 (pre-dose), and day 15–17 and at FU (Part B) for the analysis of total sCa, albumin-adjusted serum calcium (ADsCa), and sPh. These parameters were also measured on day 1, 7 and 14 at several time points post-dose. Samples for serum creatinine were taken at predefined time points to allow for calculation of fractional excretion of calcium (FECa). Endogenous serum PTH(1–84) was measured on day 1 (pre-dose and 12 h post-dose), day 2–4 and at FU (Part A), on pre-dose on day 1, 7, and 14 and on day 15–17 and FU (Part B). In Part B, additional blood samples were taken on day 1, day 14 and at FU for the analysis of serum bone turnover biomarkers, including carboxy-terminal telopeptide of type I collagen (s-CTx), and procollagen type 1 amino-terminal propeptide (P1NP).
Urine collection was performed over 24 h for the analysis of calcium and creatinine on day 1–3 and at FU (Part A) and day 1, day 7, day 14 and at FU (Part B). FECa (%) was calculated by the formula: FECa = (urine calcium/serum calcium)/(urine creatinine/serum creatinine).

Compound: CC[C@H](C)[C@H](NC(=O)[C@H](CCC(=O)O)NC(=O)[C@H](C)NC(=O)[C@@H](NC(=O)[C@H](Cc1c[nH]cn1)NC(=O)[C@@H](NC(=O)[C@H](CCC(=O)O)NC(=O)[C@H](C)NC(=O)[C@@H](NC(=O)[C@H](CC(C)C)NC(=O)[C@H](CCCCN)NC(=O)[C@H](Cc1c[nH]cn1)NC(=O)[C@H](CC(C)C)NC(=O)[C@H](Cc1ccccc1)NC(=O)[C@H](C)NC(=O)[C@H](CCCNC(=N)N)NC(=O)[C@H](CCCNC(=N)N)NC(=O)[C@H](CCCNC(=N)N)NC(=O)[C@H](C)NC(=O)[C@H](CC(=O)O)NC(=O)[C@H](CCC(N)=O)NC(=O)[C@@H](NC(=O)[C@H](Cc1c[nH]c2ccccc12)NC(=O)[C@H](CCCCN)NC(=O)[C@H](C)NC(=O)[C@H](CCCNC(=N)N)NC(=O)[C@H](CCC(N)=O)NC(=O)[C@H](Cc1c[nH]cn1)NC(=O)[C@H](CCSC)NC(=O)[C@H](CC(C)C)NC(=O)[C@H](CCC(N)=O)NC(=O)[C@@H](NC(=O)[C@H](CCC(=O)O)NC(=O)[C@H](C)NC(=O)[C@@H](NC(=O)[C@H](C)N)C(C)C)[C@@H](C)CC)[C@@H](C)CC)[C@@H](C)CC)[C@@H](C)CC)[C@@H](C)O)C(=O)O [eneboparatide] (H-AVAEIQLMHQRAKWIQDARRRAFLHKLIAEIHTAEI-OH; N-terminus and C-terminus assumed)
- urinary excretion of calcium or phosphorus (increasing single doses): no apparent dose-related changes
- duration of elevation of ADsCa post-dose vs placebo (single sc 20 μg, moderate but persistent elevation): up to 18 h
- effect on physiological decline in ADsCa (single sc 5 and 10 μg): blunted this physiological decline in ADsCa during the first 6 h post-dosing
- persistence of dose-dependent decrease of endogenous sPTH(1–84) (single sc 20–120 μg): 24 to 72 h
